In the data set the test system is artificial myocardial structure (cardiac organoid). As to the kind of experiment: contractile force-based cardiac toxicity assessment using the artificial myocardial structure. Type of data set: cell-based, human. The text has this: Furthermore, after additionally treating an artificial myocardial structure prepared by coculturing gelatin oil capsules and cardiomyocytes with various drugs, contractile forces of the drug-treated artificial myocardial structure were checked.

For the molecule `CC(C)NCC(O)c1ccc(O)c(O)c1` (stereo not drawn) [Isopreterenol], under “group treated with 10 nM”, the beat rates entry is recorded as “accelerated” and the contractile forces entry is reported as “changed strongly”. With `COc1ccc(CCN(C)CCCC(C#N)(c2ccc(OC)c(OC)c2)C(C)C)cc1OC` (stereo not drawn) [verapamil], where the note is “group treated with 125 nM”, the beat rates result was “slow down and become somewhat irregular”.

The values above are taken from patent publication US12325867B2, “Organoid produced using carrier for cell culture, and method for evaluating drug toxicity using same” (Korea Research Institute of Chemical Technology, priority 2018, dated 2025).
